Where two headings read alike, the source gives them in different places.
Key:
[1] = daily p.o. dosing of IPDR for 6 or 14 days; nude mice; cited from earlier work
[2] = system: human colon and brain cancer xenograft models; conditions: daily p.o. dosing of IPDR for 6 or 14 days; human colon and brain cancer xenografts; cited from earlier work
[3] = Plasma levels of IPDR in athymic mice; assay type: in vivo; conditions: 250 mg/kg ip; samples 0-350 min; athymic mice with U87 MG tumors
Method: Athymic mice are treated with MX-IPDR or IPDR. Tumor fragment of about 2×2×2 mm derived from Human U87 MG Glioma Cells are implanted s.c. into the axilliary region of the mice. The mice are then treated ip with MX-IPDR at 250 mg/kg or IPDR at 250 mg/kg and samples taken at 0, 2, 5, 15, 45, 75, 120, 150, 210 and 350 min after treatment. The IPDR plasma levels are determined as previously reported by Kinsella et al. {Kinsella, 2000 #121}.

HCT116 cells [4] = assay: Clonogenic survival in HCT116 (MMR-deficient) colon carcinoma cells; assay type: cell-based, human
Method: (§1) FIG. 2. […] Cells were treated for 48 hours with IUDR alone (closed symbols) or with IUDR and 6 mM Methoxyamine (open symbols). Surviving colonies were counted in triplicate 7-10 days after treatment. Error bars, Standard Error. FIG. 4. […] Cells were treated for 24 hours with FaraA alone or with FaraA and 6 mM Methoxyamine. Surviving colonies were counted in triplicate 7-10 days after treatment. Error bars, Standard Error. The human colon cancer cell line HCT116 lacks MLH1 expression and their MMR positive subline (HCT116/chr 3-6) has hMLH1 reintroduced by chromosome 3 transfer. For clonogenic survival studies in HCT116 and HCT116/3-6 cells, exponentially growing cells were similarly diluted and plated in complete D-MEM medium (+400 μg/ml G418 in HCT116/3-6 cells). […] IUDR-containing medium was then removed in HCT116 cell populations, cultures were washed with PBS and incubated at 37° C. for 7-10 days in tissue culture medium containing 10% defined FBS (+dThd). HCT116 cell populations were treated simultaneously with IUDR and 6 mM Methoxyamine (MX) (Sigma, St Louis, Mo.) for 48 hours; plates were then washed with PBS and surviving colonies were counted after incubation at 37° C. in drug-free medium for 7-10 days.

HCT116/3-6 cells = assay: Clonogenic survival in HCT116/3-6 (MMR-proficient) colon carcinoma cells; assay type: cell-based, human; conditions: for IC50: Homo sapiens, HCT-116, 24 hours
Method: as §1

EM9 cells = assay: FaraA cytotoxicity in XRCC1 mutant EM9 CHO cells; assay type: cell-based
Method: (§2) FIG. 3. Effect of Methoxyamine (MX) on cytotoxicity induced by FaraA in CHO cells proficient or deficient in Xrcc1 protein. Cells were treated for 24 hours with FaraA alone or with FaraA and 6 mM Methoxyamine. Surviving colonies were counted in triplicate 7-10 days after treatment and the experiment was repeated three times. Error bars, Standard Error.
(§3) AA8 and EM9 cells were obtained from the American Tissue Culture Collection (Manassas, Va.). H9T3 cells were a gift of Dr. L. H. Thompson (Lawrence Livermore National Laboratory, Livermore, Calif.). The parental CHO line clone AA8 was isolated as being heterozygous at the aprt locus; the mutant EM9 clone was isolated from AA8 cells following mutagenesis with EMS and carry a frameshift mutation in the XRCC1 gene resulting in a truncated polypeptide lacking two thirds of the normal sequence. […] H9T3-7-1 cells (referred in the text as H9T3) were derived from EM9 following transfection with a cosmid containing XRCC1 cDNA which corrects the DNA repair defect of EM9.
(§4) We tested whether MX, a small molecule known to be BER inhibitor, could sensitize CHO cells to FaraA cytotoxicity.

A2780/cp70 cells = assay: Clonogenic survival in A2780/cp70 (MMR-deficient) ovary carcinoma cells; assay type: cell-based, human
Method: (§5) FIG. 1. Effect of Methoxyamine (MX) on cytotoxicity induced by IUDR in human A2780/cp70 (MMR-deficient) and […]) ovary carcinoma cell lines. Cells were treated for 48 hours with IUDR alone or with IUDR and 6 mM Methoxyamine. Surviving colonies were counted in triplicate 7-10 days after treatment. Error bars, Standard Error. FIG. 5. Effect of Methoxyamine (MX) on cytotoxicity induced by FaraA in human A2780/cp70 (MMR-deficient) and […]) ovary carcinoma cell lines. Cells were treated for 48 hours with FaraA alone or with FaraA and 6 mM Methoxyamine. Surviving colonies were counted in triplicate 7-10 days after treatment. Error bars, Standard Error. For clonogenic survival studies in A2780/cp70 and […], exponentially growing cells were similarly diluted and plated in complete RPMI 1640 medium (+400 μg/ml Hygromycin in […]). […] IUDR-containing medium was then removed in cell populations, cultures were washed with PBS and incubated at 37° C. for 7-10 days in tissue culture medium containing 10% defined FBS (+dThd). Cell populations were treated simultaneously with IUDR and 6 mM Methoxyamine (MX) (Sigma, St Louis, Mo.) for 48 hours; plates were then washed with PBS and surviving colonies were counted after incubation at 37° C. in drug-free medium for 7-10 days.

H9T3 cells = assay: FaraA cytotoxicity in XRCC1 reconstituted H9T3 CHO cells; assay type: cell-based; conditions: 6 mM MX
Method: as §2, §3, §4

AA8 cells = assay: FaraA cytotoxicity in wild type AA8 CHO cells; assay type: cell-based; conditions: 6 mM MX
Method: as §2, §3, §4

[5] = system: Human U87 MG glioma cells; assay: U87 MG glioma xenografts in athymic mice, with IPDR; assay type: in vivo; conditions: U87 MG xenograft; i.p. days 1-5, 3 cycles; all mice also IPDR 250 mg/kg day 4; measured at day 49
Method: (§6) Athymic mice are treated with Rad51 antisense alone, MX alone, and Rad51 antisense in combination with MX. All mice are also treated with IPDR. Tumor fragment of about 2×2×2 mm derived from Human U87 MG glioma cells are implanted s.c. into the axilliary region of the mice. The mice are treated i.p. with Rad51 antisense at 5 mg/kg on days 1 through 5, MX at 2 mg/kg on days 1 through 5, and IPDR at 250 mg/kg on day 4. The cycle is repeated three times with a two-day rest period between cycles. The animals are euthanatized 49 days after the beginning of the experiment, and the tumor size is measured by calipers.

[6] = system: wild type and Polβ-complemented mouse fibroblasts; conditions: cited from earlier work
[7] = system: Human MDA-MB-231 breast cancer cells; assay: MDA-MB-231 breast cancer xenografts in athymic mice, with Doxorubicin; assay type: in vivo; conditions: MDA-MB-231 xenograft; i.p. days 1-5, 3 cycles; all mice also Doxorubicin 1.5 mg/kg day 4; measured at day 49
Method: FIG. 6. Effect of Rad51 antisense on tumor growth delay induced by Doxorubicin on Human MDA-MB-231 Breast cancer cells grown as xenografts in Athymic Mice. The mice were treated i.p. with Rad51 antisense at 5 mg/kg on days 1 through 5, MX at 2 mg/kg on days 1 through 5, and with Doxorubicin at 1.5 mg/kg on day 4. The cycle was repeated three times with a two-day rest period between cycles.
as §6, with “Doxorubicin.” for “IPDR.”, “MDA-MB-231 breast cancer” for “U87 MG glioma”, “cells Athymic mice” for “cells”, “Doxorubicin” for “IPDR”, “1.5” for “250”

A2780/cp70+chr3 cells = assay: Clonogenic survival in A2780/cp70+chr3 (MMR-proficient) ovary carcinoma cells; assay type: cell-based, human
Method: as §5

HCT116 cells [8] = assay: Clonogenic survival of HCT116 with poly IUDR and IUDR (Example 8); assay type: cell-based, human; conditions: 1, 3, 10 μM for 48 hours
Method: Human colon cells (HCT 116) are treated with poly IUDR, an oligonucleotide comprised of IUDR, and IUDR. For clonogenic survival studies in HCT116, exponentially growing cells are similarly diluted and plated in complete D-MEM medium (+400 μg/ml G418 in HCT116/3-6 cells). Poly IUDR and IUDR treatment (1, 3, 10 μM) in HCT116 is for 48 hours in D-MEM (-G418) medium containing 10% dialyzed FBS, and the drug-containing medium is replaced after the initial 24 hours. Compound-containing medium is then removed from the HCT116 cell cultures, the cultures are washed with PBS, and incubated at 37° C. for 7-10 days in tissue culture medium containing 10% defined FBS (+dThd). Surviving colonies are counted after incubation at 37° C. in drug-free medium for 7-10 days.

[9] = IUDR 48 hours, colonies counted after 7-10 days, read-out: IC50 for IUDR alone

For O=c1ncc(I)cn1[C@H]1C[C@H](O)[C@@H](CO)O1 [IPDR, 5-iodo-2-pyrimidinone-2′-deoxyribose], the Systemic toxicity [1] is listed as “no significant systemic toxicity”, the Tumor radiosensitization [2] is listed as “significant radiosensitization” and the “Plasma IPDR levels required to act as a radiosensitizer” value [3] is listed as “acceptable level”.
Compound Nc1nc(F)nc2c1ncn2[C@@H]1O[C@H](CO)[C@@H](O)[C@@H]1O [FaraA, Fludarabine] has an IC50 (HCT116 cells [4]; Homo sapiens, HCT-116, FaraA + 6 mM MX, 24 hours, read-out: IC50 for FaraA with 6 mM MX) of 3 µM, an IC50 (HCT116 cells [4]; Homo sapiens, HCT-116, FaraA alone, 24 hours, read-out: IC50 for FaraA treatment) of 9 µM and an IC50 (HCT116/3-6 cells; HCT116/3-6 cells, FaraA + 6 mM MX, read-out: IC50 for FaraA in the presence of 6 mM MX) of 3 µM. For the same compound, the IC50 (HCT116/3-6 cells; HCT116/3-6 cells, FaraA alone, read-out: IC50 for FaraA) was 5 µM, the IC50 (EM9 cells; Cricetulus griseus, CHO, XRCC1 mutant EM9 cells, FaraA alone, 24 hours) was 7.5 µM and the IC50 (A2780/cp70 cells; Homo sapiens, FaraA + 6 mM MX, 48 hours, read-out: IC50 for FaraA with 6 mM MX) was 4 µM. It also gave an IC50 (A2780/cp70 cells; Homo sapiens, FaraA alone, 48 hours, read-out: IC50 for FaraA alone) of 11 µM.
In the case of CON [MX, Methoxyamine], the “Sensitization to IUDR-induced cytotoxicity by MX” value (HCT116 cells [4]; 12 mM MX as printed) is reported as “greatly sensitized”, the “Sensitization to FaraA by MX” value (H9T3 cells) is reported as “significantly sensitized” and the “Sensitization to FaraA by MX” value (AA8 cells) is reported as “significantly sensitized”. For the same compound, the “Tumor size and tumor cell killing” value [5] was “Reduction in tumor size and tumor cell killing”, the “Sensitization to IUDR-induced cytotoxicity by MX” value (HCT116/3-6 cells; HCT116/3-6 cells, 12 mM MX as printed) was “greatly sensitized” and the “Sensitization to FaraA by MX” value (EM9 cells; EM9 cells, 6 mM MX) was “further sensitized”. For the same compound, the “Sensitization to the cytotoxicity of Ganciclovir” value [6] was “sensitized”, the “Tumor size and tumor cell killing” value [7] was “Reduction in tumor size and tumor cell killing” and the “Sensitization to IUDR-induced cytotoxicity by MX” value (A2780/cp70+chr3 cells; cp70/ch3 cells, 6 mM MX, 48 hours) was “greatly sensitized”. The “Sensitization to IUDR-induced cytotoxicity by MX” value (A2780/cp70 cells; 6 mM MX, 48 hours) was “greatly sensitized”.
For O=c1[nH]c(=O)n([C@H]2C[C@H](O)[C@@H](CO)O2)cc1I [IUDR, IodoUridineDeoxyRibose], the IC50 (HCT116 cells [4]; [9]) was 4.5 µM, the IC50 (HCT116 cells [4]; IUDR + MX for 48 hours (method 6 mM MX, result sentence 12 mM MX), read-out: IC50 for IUDR with MX treatment) was 0.5 µM and the “Cytotoxicity in clonogenic survival” value (HCT116 cells [8]) was “greatly sensitized”. For the same compound, the “Response to IUDR alone and to MX+IUDR compared with HCT116” value (HCT116/3-6 cells; MMR positive subline HCT116/chr3-6) was “qualitatively similar”, the “Response to IUDR alone and to MX+IUDR compared with A2780/cp70” value (A2780/cp70+chr3 cells; MMR positive subline A2780/cp70 chr3) was “qualitatively similar” and the IC50 (A2780/cp70 cells; [9]) was 8 µM. It also gave an IC50 (A2780/cp70 cells; IUDR + 6 mM MX for 48 hours, read-out: IC50 for IUDR with MX treatment) of 1 µM.

Source: patent publication US20030229004A1, “Modulation of tumor cells using BER inhibitors in combination with a sensitizing agent and DSBR inhibitors” (Pangene Corporation, priority 2002, published 2003)
